# Measurements from US20250051375A1, “ANTI-HIV COMPOUNDS” (Gilead Sciences, Inc., priority 2023, published 2025).
# Like-named read-outs stand apart in the source and are kept apart here.
# How the values were obtained:
# [1] = PBS Stability Assay; assay type: physicochemical; conditions: buffer, pH 7.4, 2 μM, phosphate buffered saline pH 7.4; read-out: PBS T½
# Procedure: Reagents. Stock solutions of test compounds in dimethyl sulfoxide (DMSO) having a final concentration of 10 mM were prepared and used in all experiments. Sekisui XenoTech (Kansas City, KS) provided pooled intestinal S9 fractions. All other chemicals were purchased from Sigma-Aldrich (St. Louis, MO) or VWR (West Chester, PA). Internal Standard/Quench (IS/Q) used to stop reactions was 100 nM labetalol in (by volume) formic acid (1%) and acetonitrile (99%).
# PBS Stability Assay: For each test compound, an aliquot of the test compound was added to phosphate buffered saline (137 mM NaCl, 2.7 mM KCl, 10 mM phosphate buffer), pH 7.4. The incubation was initiated by the addition of the test compound to PBS to a final concentration of 2 μM. At 0, 10, 20, 30, 60 and 120 min, 25 μL aliquots of the incubation mixture were transferred to plates containing 225 μl of IS/Q solution. After quenching, the plates were centrifuged at 3000×g for 30 minutes. 150 μL aliquots of each supernatant were transferred to new plates and 150 μL water was added. Aliquots (10 μL) of the prepared samples were analyzed on a Thermo Q-Exactive mass spectrometer as described below.
# Liquid Chromatography-Mass Spectrometry: Quantification of test compounds and control substrate was performed by analyte/internal standard peak area ratio (PAR) values measured on a Thermo Q-Exactive mass spectrometer coupled to a Dionex UltiMate 3000 HPLC with a Leap Technologies HTC PAL autosampler. The column used for analysis was a Thermo Scientific Hypersil GOLD (1.9 μm particle size, 50×2.1 mm). Mobile phase A consisted of 0.1% (v/v) formic acid in water. Mobile phase B consisted of 0.1% (v/v) formic acid in acetonitrile. Elution of analytes was achieved by a series of linear gradients varying the proportions of A and B. The mass spectrometer was calibrated on a weekly basis and mass tolerance of 5 ppm was used.
# Data Analysis. Metabolic stabilities were determined by measuring the rates of disappearance of test compound and positive control substrate. Data (% of substrate remaining) were plotted on a semi-log scale and fitted using an exponential decline model:
# where • Ct% of substrate remaining at time=t • C0% of substrate remaining at time=0 • t time • T½ half-life • The Half-life (T½) is determined by the following equation:
# [formula] • Assuming a first-order reaction, the slope (k) is extrapolated from the aforementioned plotted data.
# [2] = system: HIV-1 IIIB strain; test: MT-4 HIV Wild Type Virus Infection Assay (IIIB Virus); assay type: cell-based; conditions: Human immunodeficiency virus 1, IIIB, MT4, 120 h, MT-4 cells acutely infected with HIV-1 IIIB, 5 day incubation, Cell-titer glo
# Procedure: Test compounds and controls were serially diluted and spotted in replicate into 384 well black assay plates via acoustic transfer (Echo). MT-4 cells were grown in batch, centrifuged and resuspended into fresh CCM media (RPMI w/10% FBS, 1% PS) at 2×10^6 cells/ml. MT-4 cells were acutely infected with HIV-1 IIIB strain. The size of each infection mix was scaled by the number of sample plates to be tested. Each infection mix was transferred into 5 mL closed tubes and nutated rapidly on a shaker at 37° C. incubator for 1 hour. The infection mixes were then diluted 25× in fresh cell culture media and then added to assay plates at 40 μL per well using a ViaFlo 384 pipettor. After 5 day incubation at 37° C. in a CO2 incubator, assay plates were processed with Cell-titer glo reagent using a ViaFlo 384 with an addition/mixing program. Plates were read immediately on Envision reader. Assay signals were plotted and dose response curves generated to determine individual compound EC50s.
# [3] = biological target: bovine intestinal alkaline phosphatase (Bos taurus (Bovine), UniProt P19111); test: BiALP: conversion by bovine intestinal alkaline phosphatase; assay type: in vitro ADME; conditions: 2 μM substrate, 100 ng/mL iALP, Tris pH 7.8, 37° C., 60 minutes; for [Intermediate A] or [Amprenavir]: parent formed
# bovine intestinal alkaline phosphatase, sequence (P19111 20-506): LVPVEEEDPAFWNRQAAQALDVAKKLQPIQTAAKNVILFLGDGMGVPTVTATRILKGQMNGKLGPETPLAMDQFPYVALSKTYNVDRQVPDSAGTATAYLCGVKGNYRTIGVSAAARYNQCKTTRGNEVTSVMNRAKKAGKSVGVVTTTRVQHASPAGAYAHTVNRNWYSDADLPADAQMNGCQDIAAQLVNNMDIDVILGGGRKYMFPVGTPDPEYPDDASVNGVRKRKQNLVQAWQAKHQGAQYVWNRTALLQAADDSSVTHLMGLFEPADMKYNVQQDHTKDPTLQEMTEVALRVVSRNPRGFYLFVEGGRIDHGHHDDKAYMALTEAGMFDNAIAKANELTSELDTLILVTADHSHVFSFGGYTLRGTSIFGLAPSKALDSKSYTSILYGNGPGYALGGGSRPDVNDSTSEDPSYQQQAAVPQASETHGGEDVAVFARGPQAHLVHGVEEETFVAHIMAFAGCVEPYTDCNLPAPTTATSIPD
# Procedure: Fosamprenavir and its parent compound (amprenavir) were purchased from Millipore Sigma (St. Louis, MO). Test compounds, Intermediate A, fosamprenavir, and amprenavir were each separately dissolved in dimethyl sulfoxide (DMSO) at a concentration of 10 mM to form stock solutions.
# All other chemicals were purchased from Millipore Sigma (St. Louis, MO) and Thermo Fisher Scientific (Waltham, MA). […] Internal Standard/Quench (IS/Q) was 100 nM labetalol in 99:1 (v/v) acetonitrile/formic acid.
# Incubations were performed with Tris buffer alone (0.1 M Tris-HCl pH 7.8 containing 1 mM MgCl2 and 1 mM ZnCl2) or the same Tris buffer further containing 100 ng/mL iALP (0.01 units/mL). Triplicate 100 μL aliquots of Tris buffer±iALP were warmed to 37° C. and the reactions were initiated by the addition of the test compound or fosamprenavir to obtain final substrate concentrations of 2 μM. Incubations were then continued at 37° C. At 60 minutes, reactions were terminated by the addition of 200 μl of IS/Q and mixed by pipette. […] Aliquots (150 μL) of the supernatants were transferred to fresh plates containing 150 μL of water. Aliquots (15 μL) of the diluted supernatants were analyzed by mass spectrometry as described below.
# Quantification of the test compounds and fosamprenavir was performed by analyte/internal standard peak area ratios (PARs) with comparison to 2 μM Intermediate A and amprenavir, respectively. The LC instrumentation consisted of a Thermo Scientific Vanquish pump and a Thermo Hypersil Gold column (1.9 μm particle size, 2.1×50 mm). […] The MS instrument was a Thermo Q Exactive™ Plus operating in positive ionization mode with mass tolerance of 5 ppm and calibrated on a twice weekly basis.
# [4] = Solubility in FaSSIF; conditions: 23 °C, pH 6.5, fassif, thermodynamic from solid
# Procedure: Buffer Preparation: Fasted State Simulated Intestinal Fluid (FaSSIF): Simulated Intestinal Fluid (SIF) powder containing a complex of Taurocholate and Lecithin (4:1 molar ratio) was obtained from Biorelevant. 0.056 g of SIF powder was added to 25 mL of buffer, adjusted to pH 6.5, containing 0.011 g of NaOH (pellets), 0.099 g of NaH2PO4 (monohydrate), and 0.155 g of NaCl. The buffer was prepared with HPLC H2O. The SIE powder was stirred until completely dissolved and allowed to stand for 2 hours.
# Test Compounds: Each test compound was placed in a vial containing approximately 7 mg of material. Aliquots were weighed out for each assay media at each time point to be analyzed. The buffer was added to each vial such that the final dose concentration of 5 mg/mL was achieved. Samples were then vortexed for 5-10 seconds.
# The plate was sealed with a pierceable heat seal and analyzed by HPLC-UV.
Compound,[Compound] [3] [nM],solubility at 2 h [4] [µg/mL],EC50 [2] [nM],other results
COC(=O)N[C@H](C(=O)N[C@@H](Cc1ccc(C#Cc2cnc(N3CC4CCC(C3)N4C3COC3)nc2)cc1)[C@H](CN(Cc1c(F)cc(-c2ccn(C(F)F)n2)cc1F)NC(=O)[C@@H](NC(=O)OC)C(C)(C)C(F)(F)F)OC(=O)OCOC(=O)CC(C)(C)c1c(C)cc(C)cc1OP(=O)(O)O)C(C)(C)C(F)(F)F [Example 12],–,–,–,half-life at 2 μM [1]: 4.92 h; EC50 ([2]; read-out: EC50): 23.4 nM
COC(=O)N[C@H](C(=O)N[C@@H](Cc1ccc(C#Cc2ccc(N3CC4CCC(C3)N4C3COC3)nc2)cc1)[C@H](CN(Cc1c(F)cc(-c2ccn(C(F)F)n2)cc1F)NC(=O)[C@@H](NC(=O)OC)C(C)(C)C(F)(F)F)OC(=O)CC(C)(C)c1c(CC(=O)NC(CC(=O)O)C(=O)O)cc(C)cc1CP(=O)(O)O)C(C)(C)C(F)(F)F (stereo partly shown) [Example 23],2107.1,–,–,–
COC(=O)N[C@H](C(=O)N[C@@H](Cc1ccc(C#Cc2cnc(N3CC4CCC(C3)N4C3COC3)nc2)cc1)[C@H](CN(Cc1c(F)cc(-c2ccn(C(F)F)n2)cc1F)NC(=O)[C@@H](NC(=O)OC)C(C)(C)C(F)(F)F)OC(=O)CC(C)(C)c1c(CC(=O)N([C@H](C)C(=O)O)S(=O)(=O)O)cc(C)cc1OP(=O)(O)O)C(C)(C)C(F)(F)F [Example 32],1435.5,–,–,–
COC(=O)N[C@H](C(=O)N[C@@H](Cc1ccc(C#Cc2cnc(N3CC4CCC(C3)N4C3COC3)nc2)cc1)[C@H](CN(Cc1c(F)cc(-c2ccn(C(F)F)n2)cc1F)NC(=O)[C@@H](NC(=O)OC)C(C)(C)C(F)(F)F)OC(=O)CC(C)(C)c1c(CC(=O)N([C@H](C)C(=O)O)S(=O)(=O)O)cccc1OP(=O)(O)O)C(C)(C)C(F)(F)F [Example 39],1310.3,–,–,–
COC(=O)N[C@H](C(=O)N[C@@H](Cc1ccc(C#Cc2cnc(N3CC4CCC(C3)N4C3COC3)nc2)cc1)[C@H](CN(Cc1c(F)cc(-c2ccn(C(F)F)n2)cc1F)NC(=O)[C@@H](NC(=O)OC)C(C)(C)C(F)(F)F)OC(=O)OCOC(=O)CC(C)(C)c1c(CC(=O)N2CCN(CC(=O)O)CC2)cc(C)cc1OP(=O)(O)O)C(C)(C)C(F)(F)F [Example 77],2259,2760,8.3,–
COC(=O)N[C@H](C(=O)N[C@@H](Cc1ccc(C#Cc2cnc(N3CC4CCC(C3)N4C3COC3)nc2)cc1)[C@H](CN(Cc1c(F)cc(-c2ccn(C(F)F)n2)cc1F)NC(=O)[C@@H](NC(=O)OC)C(C)(C)C(F)(F)F)OC(=O)OCOC(=O)CC(C)(C)c1c(CC(=O)N2CCCC2C(=O)O)cc(C)cc1OP(=O)(O)O)C(C)(C)C(F)(F)F (stereo partly shown) [Example 78],2070.6,4390,3.1,–
"COC(=O)N[C@H](C(=O)N[C@@H](Cc1ccc(C#Cc2cnc(N3CC4CCC(C3)N4C3COC3)nc2)cc1)[C@H](CN(Cc1c(F)cc(-c2ccn(C(F)F)n2)cc1F)NC(=O)[C@@H](NC(=O)OC)C(C)(C)C(F)(F)F)OC(=O)CC(C)(C)c1c(CC(=O)N2CCN(S(C)(=O)=O)CC2)cc(C)cc1OP(=O)(O)O)C(C)(C)C(F)(F)F [Example 80, (5S,10S,11S,14S)-8-(4-(1-(difluoromethyl)-1H-pyrazol-3-yl)-2,6-difluorobenzyl)-11-(4-((2-(8-(oxetan-3-yl)-3,8-diazabicyclo[3.2.1]octan-3-yl)pyrimidin-5-yl)ethynyl)benzyl)-3,6,13,16-tetraoxo-5,14-bis(1,1,1-trifluoro-2-methylpropan-2-yl)-2,17-dioxa-4,7,8,12,15-pentaazaoctadecan-10-yl 3-methyl-3-(4-methyl-2-(2-(4-(methylsulfonyl)piperazin-1-yl)-2-oxoethyl)-6-(phosphonooxy)phenyl)butanoate]",2507.9,< 1000,735,biALP Intermediate A or [Amprenavir] (% of total) [3]: 0 % of total; [Intermediate A] or [Amprenavir] [3]: 0 nM
"COC(=O)N[C@H](C(=O)N[C@@H](Cc1ccc(C#Cc2cnc(N3CC4CCC(C3)N4C3COC3)nc2)cc1)[C@H](CN(Cc1c(F)cc(-c2ccn(C(F)F)n2)cc1F)NC(=O)[C@@H](NC(=O)OC)C(C)(C)C(F)(F)F)OC(=O)CC(C)(C)c1c(CC(=O)N2CCN(S(N)(=O)=O)CC2)cc(C)cc1OP(=O)(O)O)C(C)(C)C(F)(F)F [Example 81, (5S,10S,11S,14S)-8-(4-(1-(difluoromethyl)-1H-pyrazol-3-yl)-2,6-difluorobenzyl)-11-(4-((2-(8-(oxetan-3-yl)-3,8-diazabicyclo[3.2.1]octan-3-yl)pyrimidin-5-yl)ethynyl)benzyl)-3,6,13,16-tetraoxo-5,14-bis(1,1,1-trifluoro-2-methylpropan-2-yl)-2,17-dioxa-4,7,8,12,15-pentaazaoctadecan-10-yl 3-methyl-3-(4-methyl-2-(2-oxo-2-(4-sulfamoylpiperazin-1-yl)ethyl)-6-(phosphonooxy)phenyl)butanoate]",2385.2,< 1000,627,biALP Intermediate A or [Amprenavir] (% of total) [3]: 0 % of total; [Intermediate A] or [Amprenavir] [3]: 0 nM
"CC(C)CN(C[C@@H](OP(=O)(O)O)[C@H](Cc1ccccc1)NC(=O)O[C@H]1CCOC1)S(=O)(=O)c1ccc(N)cc1 [Fosamprenavir, fosamprenavir, reference compound]",1605,–,–,–
